Assay results: patent US9724331B2, “Use of maleimide derivatives for preventing and treating leukemia” (CENTOGENE AG, priority 2012, dated 2017)
Entries after “also recorded” stand apart in the source; their conditions may differ.

Columns and labels:
[1] = biological target: T1, recombinant human GSK3β (Homo sapiens, UniProt P49841); test: GSK3β kinase activity assay (Kinase-Glo luminescence); format: biochemical
T1 construct: purchased Biomol, Hamburg, Germany
Method: The kinase activity assay was performed as previously described by Schmole et. al., 2010 (Schmole et al., 2010, Novel indolylmaleimide acts as GSK-3beta inhibitor in human neural progenitor cells. Bioorganic medicinal chemistry, 18, 6785-95). Briefly, recombinant human GSK3β (Biomol, Hamburg, Germany) was incubated with its substrate phospho glycogen synthase peptide 2 (pGS2) (Millipore, Billerica, USA), ATP (Cell Signaling, Frankfurt am Main, Germany) and different concentrations of PDA-66 for 30 min at 30° C. After addition of Kinase-Glo (Promega, Mannheim, Germany) and 10 min of incubation at room temperature the luminescence signal was measured with a Glomax 96 microplate reader (Promega). More specifically, recombinant human GSK3β was incubated with pGS2, ATP and different concentrations of PDA-66. […] In each experiment the concentrations of PDA-66 and the control were tested with 8 replicates. * Significant treatment effect vs. DMSO control, α=0.05.
The effect of PDA-66 on the enzyme activity of GSK3β was determined by incubation of the enzyme with a specific substrate, PDA-66 and ATP. With growing inhibitory effect there is more ATP present after the incubation. In a second step remaining ATP is converted to a luminescence signal, which is inversely proportional to the enzyme activity.

[2] = test system: Jurkat cells; test: Proliferation, cell counts by trypan blue staining; format: cell-based, human
Method: (§1) The human B-ALL cell lines SEM, RS4;11 and the human T-ALL cell lines Jurkat and Molt-4 were purchased from DSMZ (Germany) and cultured according to manufacturer's protocol. The corresponding medium was supplemented with 10% heat-inactivated fetal bovine serum (PAA, Pasching, Austria) and 1% penicillin and streptomycin (Biochrom AG, Berlin, Germany). The Molt-4 cells were cultured with medium supplemented with 20% heat-inactivated fetal bovine serum. All cells were maintained at 37° C. in 5% CO2. Cells (5×10^5/well) were seeded in 24 well plates (Nunc, Langenselbold, Germany) and incubated for up to 72 h with PDA-66. Treated cells were harvested after 4, 24, 48 and 72 h and used for further analyses.
(§2) Cell counts were determined using the trypan blue staining. Metabolic activity was analyzed by using tetrazolium compound WST-1 (Roche, Mannheim, Germany). In brief, triplicates of cells (5×10^4/well) were seeded in 96 well plates, treated with PDA-66 and incubated with 15 μl WST-1 for up to 4 h. The mitochondrial dehydrogenases reduce WST-1 to soluble formazan and cause a change of color, which correlates with the amount of metabolically active cells. Absorbance at 450 nm and a reference wavelength at 620 nm were determined by an ELISA Reader (Anthos, Krefeld, Germany). The absorbance of culture medium with supplemented WST-1 in the absence of cells was used as background control.
(§3) The influence of PDA-66 on proliferation in ALL cell lines SEM, RS4;11, Jurkat and Molt-4 was analyzed by incubation with different concentrations of the drug (0.001 μM to 10 μM). Metabolic activity was determined using WST-1 assay. […] Results are summarized in FIG. 2, whereby the individual nine bars for each set of experiments represent, from left to right, DMSO, 0.001 μM, 0.01 μM, 0.1 μM, 0.25 μM, 0.5 μM, 1.0 μM, 5 μM and 10 μM. After 48 h of incubation an inhibition of proliferation could be observed, but was more distinct after 72 h.

[3] = test system: Molt-4 cells; test: Proliferation, cell counts by trypan blue staining; format: cell-based, human
Method: as §1, §2, §3

[4] = test system: RS4;11 cells; test: Proliferation, cell counts by trypan blue staining; format: cell-based, human
Method: as §1, §2, §3

[5] = test system: SEM cells; test: Proliferation, cell counts by trypan blue staining; format: cell-based, human
Method: as §1, §2, §3

[6] = test system: cleavage of Caspase 3, 7 and PARP; test: Western blot, induction of apoptosis; format: cell-based, human; details: all cell lines (SEM shown exemplarily); 48 h after addition
Method: (A) Cells were treated with PDA-66 for up to 72 h and stained with Annexin V FITC and Propidium iodide (PI). Rates of early apoptotic (FITC^+, PI^−) and late apoptotic and necrotic (FITC^+, PI^+) cells were measured by flow cytometry. Significant induction of apoptosis could be observed in all cell lines after 48 h of incubation as well as tendential induction of necrosis at both points of time. […] (B) Induction of apoptosis was confirmed by Western blot. Cells were treated with different concentrations of PDA-66 and total cell lysates (25 μg) were analyzed by Western blot to detect cleavage of Caspase 3, 7 and PARP. GAPDH was used as loading control.
Additionally, the effect of PDA-66 on apoptosis was determined by and western blot. For protein extraction cells were washed twice in PBS and lysed with RIPA buffer (50 mM Tris HCl pH 7.4; 150 mM NaCl; 0.1% SDS and 1% NP40) including protease and phosphatase inhibitors (Roche Applied Science, Mannheim, Germany). Samples were incubated for 20 min at 4° C. and frozen at −20° C. Cell extracts were thawed and centrifuged at 12000 g for 10 min at 4° C. Total protein concentration of supernatants was determined using Bio-Rad Protein Assay (Bio-Rad, München, Germany).
Equal amounts of protein samples were separated by SDS-polyacrylamid gel (8% or 15%) electrophoresis and transferred onto a PVDF membrane (Amersham Biosciences, Buckinghamshire, UK). […]

[7] = test system: Jurkat cells; test: Metabolic activity, WST-1 assay; format: cell-based, human
Method: as §1, §2, §3

[8] = test system: Molt-4 cells; test: Metabolic activity, WST-1 assay; format: cell-based, human; details: 0.5 μM PDA-66, 72 h, mean±SD
Method: as §1, §2, §3

[9] = test system: RS4;11 cells; test: Metabolic activity, WST-1 assay; format: cell-based, human; details: 0.5 μM PDA-66, 72 h, mean±SD
Method: as §1, §2, §3

[10] = test system: SEM cells; test: Metabolic activity, WST-1 assay; format: cell-based, human
Method: as §1, §2, §3

[11] = 0.5 μM PDA-66, 72 h, vs. DMSO control
[12] = 0.5 μM or more, seeded cells 5×10^5

T1 sequence (P49841 whole entry): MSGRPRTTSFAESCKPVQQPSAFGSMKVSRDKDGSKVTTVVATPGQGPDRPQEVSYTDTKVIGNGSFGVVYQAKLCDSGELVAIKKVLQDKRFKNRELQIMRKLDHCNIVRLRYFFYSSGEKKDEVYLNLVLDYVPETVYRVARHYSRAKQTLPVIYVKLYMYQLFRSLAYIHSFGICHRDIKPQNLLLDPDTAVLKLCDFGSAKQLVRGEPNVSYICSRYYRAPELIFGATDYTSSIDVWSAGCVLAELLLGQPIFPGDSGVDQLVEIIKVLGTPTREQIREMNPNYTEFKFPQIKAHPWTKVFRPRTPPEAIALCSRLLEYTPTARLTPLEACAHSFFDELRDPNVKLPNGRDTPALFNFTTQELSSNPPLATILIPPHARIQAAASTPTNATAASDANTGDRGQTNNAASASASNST

For `CC(=O)c1ccc(C2=C(c3c(C)[nH]c4ccccc34)C(=O)N(C)C2=O)cc1` [PDA-66, 3-(4-Acetylphenyl)-1-methyl-4-(2-methyl-1H-indol-3-yl)-1H-pyrrole-2,5-dione], the GSK3β enzyme activity ([1]; 10 μM PDA-66) was “seems to enhance enzyme activity”, the GSK3β kinase activity ([1]; 0.25-1 μM PDA-66, 30 min at 30° C., vs. DMSO control) was “significantly inhibited; also recorded: inhibition of the enzyme” and the “dose response relationship of GSK3β kinase activity” value ([1]; FIG. 1) was “bell shaped dose response relationship”. The inhibition of proliferation [2, 11] was “significant inhibition”, the cell numbers [2, 12] was “decrease in cell numbers i.e. below the amount of seeded cells” and the inhibition of proliferation [3, 11] was “significant inhibition”. For the same molecule, the cell numbers [3, 12] was “decrease in cell numbers i.e. below the amount of seeded cells”, the inhibition of proliferation [4, 11] was “significant inhibition” and the cell numbers [4, 12] was “decrease in cell numbers i.e. below the amount of seeded cells”. The inhibition of proliferation [5, 11] was “significant inhibition”, the cell numbers [5, 12] was “decrease in cell numbers i.e. below the amount of seeded cells” and the “cleavage of caspases 3 and 7 and PARP” value [6] was “induced cleavage”. For the same molecule, the IC50 ([7]; Homo sapiens, Jurkat cells, 72 h of incubation) was 1280 nM, the “metabolic activity compared to control cells treated with DMSO” value ([7]; Jurkat, 0.5 μM PDA-66, 72 h, mean±SD) was 66.7±8% and the “metabolic activity compared to control cells treated with DMSO” value [8] was 35.5±17%. The “metabolic activity compared to control cells treated with DMSO” value [9] was 33.3±4.4%, the IC50 ([10]; Homo sapiens, SEM cells, 72 h of incubation) was 410 nM and the “metabolic activity compared to control cells treated with DMSO” value ([10]; SEM, 0.5 μM PDA-66, 72 h, mean±SD) was 35.7±8.3%.
